Experimental data from publication PMC3179935, “Gallus gallus NEU3 sialidase as model to study protein evolution mechanism based on rapid evolving loops” (BMC Biochemistry, 2011).

Biological target: T1, Mm NEU3 (Mm NEU3-HA) (Mus musculus, UniProt Q9JMH7)
T1 construct: HA tag, pcDNAI, transiently expressed in COS7, total cell lysate
T1 sequence (Q9JMH7 1-418): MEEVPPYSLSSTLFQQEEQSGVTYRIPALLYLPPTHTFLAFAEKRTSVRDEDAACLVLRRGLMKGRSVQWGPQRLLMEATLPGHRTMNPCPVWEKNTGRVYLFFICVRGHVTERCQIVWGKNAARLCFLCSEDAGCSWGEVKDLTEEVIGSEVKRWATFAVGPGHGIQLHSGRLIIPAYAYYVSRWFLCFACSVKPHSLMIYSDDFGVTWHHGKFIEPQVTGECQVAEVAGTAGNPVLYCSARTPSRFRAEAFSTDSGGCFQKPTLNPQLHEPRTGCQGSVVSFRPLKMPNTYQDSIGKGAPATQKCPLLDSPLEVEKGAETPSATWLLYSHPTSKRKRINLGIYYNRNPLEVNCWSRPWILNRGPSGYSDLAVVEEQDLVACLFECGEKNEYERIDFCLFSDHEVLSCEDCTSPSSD
Test: sialidase activity in transfected COS7 lysate
Type: biochemical
Conditions: positive control; pH range 2.5-5.5; 37 °C

`CC(=O)N[C@H]1[C@H]([C@H](O)[C@H](O)CO)O[C@@](Oc2ccc3c(C)cc(=O)oc3c2)(C(=O)O)C[C@@H]1O` [4-MU-NeuAc] was tested, and the “sialidase activity in transfected COS7 lysate” value was “pcDNAI-Mm NEU3-HA transfected cells were used as control”.
